Results on 22 compounds are retold here after patent publication US20060135773A1, “Trisubstituted nitrogen modulators of tyrosine phosphatases” (priority 2004, published 2006).

Some results are limits rather than exact numbers.

The assay has as its target T1, PTP-1B (Homo sapiens, UniProt P18031).
T1 construct: PTP-1B (purified, 1 mg/mL) as a 1:250 dilution
T1 sequence (P18031 1-321 limits assumed): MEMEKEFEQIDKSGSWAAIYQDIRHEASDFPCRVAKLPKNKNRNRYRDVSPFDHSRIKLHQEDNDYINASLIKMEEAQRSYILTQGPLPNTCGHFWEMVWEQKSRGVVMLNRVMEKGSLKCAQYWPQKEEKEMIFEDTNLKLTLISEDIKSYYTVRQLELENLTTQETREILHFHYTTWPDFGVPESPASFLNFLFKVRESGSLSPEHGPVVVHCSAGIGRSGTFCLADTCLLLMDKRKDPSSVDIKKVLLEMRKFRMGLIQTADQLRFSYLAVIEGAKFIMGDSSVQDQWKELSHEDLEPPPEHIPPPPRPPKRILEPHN
Briefly: pNPP tyrosine phosphatase inhibition assay, PTP-1B. Conditions: pNPP assay, PTP-1B; read-out: Activity Class (IC50 ranges). Format: biochemical. Summed up: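 Test compounds were screened at two final levels, 31.3 and 10 µM, against 4 µg/mL purified PTP-1B. The substrate was 10 mM p-nitrophenyl phosphate, with incubation for 10 min at 30°C before a K2CO3 quench. Activity was taken from A405.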
In general, IC50 refers to the concentration needed to halve the response being measured. As for `COc1ccccc1S(=O)(=O)N(Cc1ccc(C(F)(F)P(=O)(O)O)c(Cl)c1)Cc1ccccc1-c1ccccc1` [Compound 168, [(4-{[Biphenyl-2-ylmethyl-(2-methoxy-benzenesulfonyl)-amino]-methyl}-2-chloro-phenyl)-difluoro-methyl]-phosphonic acid], the IC50 was in the range of 100 to 249 nM.
Then `COc1ccccc1S(=O)(=O)N(Cc1ccc(OCc2nn[nH]n2)cc1)Cc1ccc(S(C)(=O)=O)cc1` [Compound 128, N-(4-Methanesulfonyl-benzyl)-2-methoxy-N-[4-(2H-tetrazol-5-ylmethoxy)-benzyl]-benzenesulfonamide], with greater than 25000 nM; and `COC(=O)c1ccc(-c2ccc(CN(Cc3ccc(C(F)(F)P(=O)(O)O)c(Cl)c3)S(=O)(=O)c3ccccc3OC)cc2)cc1F` [Compound 174, 4′-{[[3-Chloro-4-(difluoro-phosphono-methyl)-benzyl]-(2-methoxy-benzenesulfonyl)-amino]-methyl}-3-fluoro-biphenyl-4-carboxylic acid methyl ester], with 100 to 249 nM.
Then `COc1ccc(OC)c(S(=O)(=O)N(Cc2ccc(C(O)CO)cc2)Cc2ccc(S(C)(=O)=O)cc2)c1` (stereo not shown) [Compound 119, N-[4-(1,2-Dihydroxy-ethyl)-benzyl]-N-(4-methanesulfonyl-benzyl)-2,5-dimethoxy-benzenesulfonamide], with greater than 25000 nM.
The figure for `CS(=O)(=O)N(Cc1ccc(C(F)(F)P(=O)(O)O)cc1)Cc1ccc(C(F)(F)P(=O)(O)O)cc1` [Compound 131, {[4-({[4-(Difluoro-phosphono-methyl)-benzyl]-methanesulfonyl-amino}-methyl)-phenyl]-difluoro-methyl}-phosphonic acid] is 2500 to 25000 nM; for `O=C(O)c1ccc(CN(Cc2ccc(C(=O)O)cc2Br)S(=O)(=O)c2ccccc2)cc1` [Compound 80, 4-([Benzenesulfonyl-(2-bromo-4-carboxybenzyl)-amino]-methyl)-benzoic acid] it is greater than 25000 nM.
Take “5-{4-[({[4-(difluorophosphonomethyl)-3-chlorophenyl]methyl}[(2-methoxyphenyl)sulfonyl]amino)methyl]phenyl}-2-methoxybenzoic acid [Compound 207]”: the IC50 was less than 99 nM.
The figure for `COc1ccccc1S(=O)(=O)N(Cc1ccc(C(F)(F)P(=O)(O)O)c(Cl)c1)CC12CC3CC(CC(C3)C1)C2` [Compound 201, (Adamantanylmethyl){[4-(difluorophosphonomethyl)-3-chlorophenyl]methyl}[(2-methoxyphenyl)sulfonyl]amine] is 250 to 499 nM; for `N#Cc1cccc(S(=O)(=O)N(Cc2ccc(C(F)(F)P(=O)(O)O)c(Cl)c2)Cc2ccccc2-c2ccccc2)c1` [Compound 216, [(4-{[Biphenyl-2-ylmethyl-(3-cyano-benzenesulfonyl)-amino]-methyl}-2-chloro-phenyl)-difluoro-methyl]-phosphonic acid] it is 250 to 499 nM.
For `COc1ccccc1S(=O)(=O)N(Cc1ccc(C(=NO)C(=O)O)cc1)Cc1ccc(S(C)(=O)=O)cc1` [Compound 126, Hydroxyimino-(4-{[(4-methanesulfonyl-benzyl)-(2-methoxy-benzenesulfonyl)-amino]-methyl}-phenyl)-acetic acid], the IC50 was greater than 25000 nM.
Regarding `CS(=O)(=O)c1ccc(CN(Cc2ccc(C(F)(F)P(=O)(O)O)c(Br)c2)S(=O)(=O)c2ccccc2Cl)cc1` [Compound 102, [(2-Bromo-4-{[(2-chloro-benzenesulfonyl)-(4-methanesulfonyl-benzyl)-amino]-methyl}-phenyl)-difluoro-methyl]-phosphonic acid], the IC50 is 100 to 249 nM.
The figure for `O=P(O)(O)C(F)(F)c1ccc(CN(Cc2ccc(C(F)(F)P(=O)(O)O)cc2)c2ccc(-c3ccccc3)cc2)cc1` [Compound 62, {[4-({Biphenyl-4-yl-[4-(difluoro-phosphono-methyl)-benzyl]-amino}-methyl)-phenyl]-difluoro-methyl}-phosphonic acid] is 2500 to 25000 nM.
Regarding `CC(=O)N(Cc1ccc(C(F)(F)P(=O)(O)O)cc1)Cc1ccc(C(F)(F)P(=O)(O)O)cc1` [Compound 59, {[4-({Acetyl-[4-(difluoro-phosphono-methyl)-benzyl]-amino}-methyl)-phenyl]-difluoro-methyl}-phosphonic acid], the IC50 was greater than 25000 nM.
The figure for `O=P(O)(O)C(F)(F)c1ccc(CN(Cc2ccc(Cl)c(Cl)c2)S(=O)(=O)c2ccc(Oc3ccccc3)cc2)cc1Br` [Compound 109, [(2-Bromo-4-{[(3,4-dichloro-benzyl)-(4-phenoxy-benzenesulfonyl)-amino]-methyl}-phenyl)-difluoro-methyl]-phosphonic acid] is 250 to 499 nM.
The figure for `O=P(O)(O)C(F)(F)c1ccc(CN(Cc2ccc(C(F)(F)P(=O)(O)O)cc2)S(=O)(=O)c2ccccc2Br)cc1` [Compound 84, {[4-({(2-Bromo-benzenesulfonyl)-[4-(difluoro-phosphono-methyl)-benzyl]-amino}-methyl)-phenyl]-difluoro-methyl}-phosphonic acid] is 250 to 499 nM.
The figure for `COc1ccccc1S(=O)(=O)N(Cc1ccc(S(C)(=O)=O)cc1)Cc1ccc(OCC(=O)O)c(C(=O)O)c1` [Compound 134, 2-Carboxymethoxy-5-{[(4-methanesulfonyl-benzyl)-(2-methoxy-benzenesulfonyl)-amino]-methyl}-benzoic acid] is greater than 25000 nM; for `COc1ccccc1S(=O)(=O)N(Cc1ccc(N(CC(C)C(=O)O)C(=O)C(=O)O)cc1)Cc1ccc(N(CC(C)C(=O)O)C(=O)C(=O)O)cc1` (stereo not shown) [Compound 223, 3-[(4-{[{4-[(2-Carboxy-propyl)-oxalyl-amino]-benzyl}-(2-methoxy-benzenesulfonyl)-amino]-methyl}-phenyl)-oxalyl-amino]-2-methyl-propionic acid] it is greater than 25000 nM.
As for `O=P(O)(O)C(F)(F)c1ccc(CN(Cc2ccc(C(F)(F)P(=O)(O)O)cc2)S(=O)(=O)c2ccc(Cl)c(Cl)c2)cc1` [Compound 77, {[4-({(3,4-Dichloro-benzenesulfonyl)-[4-(difluoro-phosphono-methyl)-benzyl]-amino}-methyl)-phenyl]-difluoro-methyl}-phosphonic acid], the IC50 was in the range of 250 to 499 nM.
Then `COc1ccccc1S(=O)(=O)N(Cc1ccc(C#N)cc1)Cc1ccc(NC(=O)C(=O)O)c(C(=O)O)c1` [Compound 133], with greater than 25000 nM.
Then `Cc1cc(C=C(C#N)C(=O)Nc2ccc3ccccc3c2)c(C)n1-c1ccc(C(=O)O)cc1` [Compound 58, 4-{3-[2-Cyano-2-(naphthalen-2-ylcarbamoyl)-vinyl]-2,5-dimethyl-pyrrol-1-yl}-benzoic acid], with greater than 25000 nM.
Then `O=P(O)(O)C(F)(F)c1ccc(CN(Cc2ccc(C(F)(F)P(=O)(O)O)cc2)C2CCCC2)cc1` [Compound 63, {[4-({Cyclopentyl-[4-(difluoro-phosphono-methyl)-benzyl]-amino}-methyl)-phenyl]-difluoro-methyl}-phosphonic acid], with greater than 25000 nM.
For `COc1ccccc1S(=O)(=O)N(Cc1ccccc1)Cc1ccc(C(F)(F)P(=O)(O)O)c(Cl)c1` [Compound 170, [(4-{[Benzyl-(2-methoxy-benzenesulfonyl)-amino]-methyl}-2-chloro-phenyl)-difluoro-methyl]-phosphonic acid], the IC50 lay within 250 to 499 nM.
